{"source": "patent US4593093A", "about": "“Acyl derivatives” (priority 1980, dated 1986)", "key": {"[1]": {"system": "Escherichia coli", "assay": "Activity in vitro: minimum inhibitory concentration", "assay_type": "cell-based"}, "[2]": {"system": "Proteus mirabilis", "assay": "Activity in vitro: minimum inhibitory concentration", "assay_type": "cell-based"}, "[3]": {"system": "Proteus morganii", "assay": "Activity in vitro: minimum inhibitory concentration", "assay_type": "cell-based", "conditions": "Morganella morganii"}, "[4]": {"system": "Proteus rettgeri", "assay": "Activity in vitro: minimum inhibitory concentration", "assay_type": "cell-based", "conditions": "Providencia rettgeri"}, "[5]": {"system": "Proteus inconstans", "assay": "Activity in vitro: minimum inhibitory concentration", "assay_type": "cell-based", "conditions": "Providencia alcalifaciens"}, "[6]": {"system": "Proteus vulgaris", "assay": "Activity in vitro: minimum inhibitory concentration", "assay_type": "cell-based"}, "[7]": {"system": "Klebsiella pseumoniae", "assay": "Activity in vitro: minimum inhibitory concentration", "assay_type": "cell-based"}, "[8]": {"system": "Serratia marcescens", "assay": "Activity in vitro: minimum inhibitory concentration", "assay_type": "cell-based"}, "[9]": {"system": "Enterobacter cloacae", "assay": "Activity in vitro: minimum inhibitory concentration", "assay_type": "cell-based"}, "[10]": {"system": "Enterobacter aerogenes", "assay": "Activity in vitro: minimum inhibitory concentration", "assay_type": "cell-based", "conditions": "Klebsiella aerogenes"}, "[11]": {"system": "Citrobacter freundii", "assay": "Activity in vitro: minimum inhibitory concentration", "assay_type": "cell-based"}, "[12]": {"system": "Pseudomonas aeruginosa", "assay": "Activity in vitro: minimum inhibitory concentration", "assay_type": "cell-based"}, "[13]": {"system": "Staphylococcus aureus", "assay": "Activity in vitro: minimum inhibitory concentration", "assay_type": "cell-based"}, "[14]": {"system": "Staphylococcus epidermis", "assay": "Activity in vitro: minimum inhibitory concentration", "assay_type": "cell-based"}, "[15]": {"system": "Streptococcus faecalis", "assay": "Activity in vitro: minimum inhibitory concentration", "assay_type": "cell-based", "conditions": "Enterococcus faecalis"}, "[16]": {"system": "Streptococcus pyogenes", "assay": "Activity in vitro: minimum inhibitory concentration", "assay_type": "cell-based"}, "[17]": {"system": "Streptococcus pneumoniae", "assay": "Activity in vitro: minimum inhibitory concentration", "assay_type": "cell-based"}, "[18]": {"system": "Streptococcus viridans", "assay": "Activity in vitro: minimum inhibitory concentration", "assay_type": "cell-based"}, "[19]": {"system": "Enterobacter cloacae", "assay": "Activity in vivo: survival of intraperitoneally infected mice", "conditions": "sc, 96 h; mice infected i.p. with Enterobacter cloacae; s.c. twice, 1 h and 3 h after infection; survival on 4th day; read-out: CD50 (dosage at which 50% of the animals survive)", "procedure": "(§1) Groups of 5 mice are infected intraperitoneally with an aqueous suspension of various pathogens. The test substance in physiological sodium chloride solution is administered subcutaneously twice, i.e. 1 hour and 3 hours after the infection. The number of surviving animals is determined on the 4th day. Various dosages are administered and that dosage at which 50% of the experimental animals survive (CD50, mg/kg) is determined by interpolation."}, "[20]": {"system": "Escherichia coli", "assay": "Activity in vivo: survival of intraperitoneally infected mice", "conditions": "sc, 96 h; mice infected i.p. with Escherichia coli; s.c. twice, 1 h and 3 h after infection; survival on 4th day; read-out: CD50 (dosage at which 50% of the animals survive)", "procedure": "as §1"}, "[21]": {"system": "Haemophilus influenzae", "assay": "Activity in vivo: survival of intraperitoneally infected mice", "conditions": "sc, 96 h; mice infected i.p. with Haemophilus influenzae; s.c. twice, 1 h and 3 h after infection; survival on 4th day; read-out: CD50 (dosage at which 50% of the animals survive)", "procedure": "as §1"}, "[22]": {"system": "Serratia marcescens", "assay": "Activity in vivo: survival of intraperitoneally infected mice", "conditions": "sc, 96 h, mice infected i.p. with Serratia marcescens strain 1, s.c. twice, 1 h and 3 h after infection, survival on 4th day, read-out: CD50 (dosage at which 50% of the animals survive)", "procedure": "as §1"}, "[23]": {"system": "Streptococcus pyogenes", "assay": "Activity in vivo: survival of intraperitoneally infected mice", "conditions": "sc, 96 h; mice infected i.p. with Streptococcus pyogenes; s.c. twice, 1 h and 3 h after infection; survival on 4th day; read-out: CD50 (dosage at which 50% of the animals survive)", "procedure": "as §1"}, "[24]": {"system": "Pseudomonas aeruginosa", "assay": "Activity in vivo: survival of intraperitoneally infected mice", "conditions": "sc, 96 h; mice infected i.p. with Pseudomonas aeruginosa; s.c. three times, 1 h, 3 h and 5 h after infection; survival on 4th day; read-out: CD50 (dosage at which 50% of the animals survive)", "procedure": "as §1\n*Administered subcutaneously three times: 1 hour, 3 hours and 5 hours"}, "[25]": {"assay": "Toxicity, LD50", "conditions": "in vivo"}}, "note": "Like-named read-outs stand apart in the source and are kept apart here.", "data": [{"smiles": "CO/N=C(\\C(=O)N[C@@H]1C(=O)N2C(C(=O)[O-])=C(CSc3nnnn3C)CS[C@H]12)c1c[se]c(N)n1.[Na+]", "note": "[Product A, (6R, 7R)-7-[2-(2-amino-4-selenazolyl)-2-[(Z)-methoxyimino]-acetamido]-3-[[(1-methyl-1H-tetrazol-5-yl)-thio]methyl]-8-oxo-5-thia-1-azabicyclo[4.2.0]oct-2-ene-2-carboxylic acid sodium salt]", "values": [{"measurement": "MIC", "setting": "[1]; Escherichia coli strain 1", "result": 0.1, "unit": "µg/mL"}, {"measurement": "MIC", "setting": "[1]; Escherichia coli strain 2", "result": 0.025, "unit": "µg/mL"}, {"measurement": "MIC", "setting": "[1]; Escherichia coli strain 3", "result": 0.4, "unit": "µg/mL"}, {"measurement": "MIC", "setting": "[1]; Escherichia coli strain 4", "result": 0.2, "unit": "µg/mL"}, {"measurement": "MIC", "setting": "[1]; Escherichia coli strain 5", "result": 0.4, "unit": "µg/mL"}, {"measurement": "MIC", "setting": "[2]; Proteus mirabilis strain 1", "result": 0.1, "unit": "µg/mL"}, {"measurement": "MIC", "setting": "[2]; Proteus mirabilis strain 2", "result": 0.1, "unit": "µg/mL"}, {"measurement": "MIC", "setting": "[2]; Proteus mirabilis strain 3", "result": 0.8, "unit": "µg/mL"}, {"measurement": "MIC", "setting": "[2]; Proteus mirabilis strain 4", "result": 0.05, "unit": "µg/mL"}, {"measurement": "MIC", "setting": "[2]; Proteus mirabilis strain 5", "result": 0.05, "unit": "µg/mL"}, {"measurement": "MIC", "setting": "[3]", "result": 0.1, "unit": "µg/mL"}, {"measurement": "MIC", "setting": "[4]", "result": 0.2, "unit": "µg/mL"}, {"measurement": "MIC", "setting": "[5]", "result": 0.025, "unit": "µg/mL"}, {"measurement": "MIC", "setting": "[6]", "result": 0.78, "unit": "µg/mL"}, {"measurement": "MIC", "setting": "[7]; Klebsiella pseumoniae strain 1", "result": 0.2, "unit": "µg/mL"}, {"measurement": "MIC", "setting": "[7]; Klebsiella pseumoniae strain 2", "result": 0.05, "unit": "µg/mL"}, {"measurement": "MIC", "setting": "[7]; Klebsiella pseumoniae strain 3", "result": 0.1, "unit": "µg/mL"}, {"measurement": "MIC", "setting": "[8]; Serratia marcescens strain 1", "result": 0.4, "unit": "µg/mL"}, {"measurement": "MIC", "setting": "[8]; Serratia marcescens strain 2", "result": 0.8, "unit": "µg/mL"}, {"measurement": "MIC", "setting": "[8]; Serratia marcescens strain 3", "result": 0.1, "unit": "µg/mL"}, {"measurement": "MIC", "setting": "[9]; Enterobacter cloacae strain 1", "result": "> 100", "unit": "µg/mL"}, {"measurement": "MIC", "setting": "[9]; Enterobacter cloacae strain 2", "result": 0.8, "unit": "µg/mL"}, {"measurement": "MIC", "setting": "[9]; Enterobacter cloacae strain 3", "result": 50, "unit": "µg/mL"}, {"measurement": "MIC", "setting": "[10]; Enterobacter aerogenes strain 1", "result": 0.1, "unit": "µg/mL"}, {"measurement": "MIC", "setting": "[10]; Enterobacter aerogenes strain 2", "result": 0.1, "unit": "µg/mL"}, {"measurement": "MIC", "setting": "[11]; Citrobacter freundii strain 1", "result": 1.6, "unit": "µg/mL"}, {"measurement": "MIC", "setting": "[11]; Citrobacter freundii strain 2", "result": 0.05, "unit": "µg/mL"}, {"measurement": "MIC", "setting": "[12]; Pseudomonas aeruginosa strain 1", "result": 25, "unit": "µg/mL"}, {"measurement": "MIC", "setting": "[12]; Pseudomonas aeruginosa strain 2", "result": 25, "unit": "µg/mL"}, {"measurement": "MIC", "setting": "[12]; Pseudomonas aeruginosa strain 3", "result": 6.3, "unit": "µg/mL"}, {"measurement": "MIC", "setting": "[13]; Staphylococcus aureus strain 1", "result": 0.8, "unit": "µg/mL"}, {"measurement": "MIC", "setting": "[13]; Staphylococcus aureus strain 2", "result": 1.6, "unit": "µg/mL"}, {"measurement": "MIC", "setting": "[13]; Staphylococcus aureus strain 3", "result": 0.8, "unit": "µg/mL"}, {"measurement": "MIC", "setting": "[13]; Staphylococcus aureus strain 4", "result": 0.8, "unit": "µg/mL"}, {"measurement": "MIC", "setting": "[14]", "result": 0.8, "unit": "µg/mL"}, {"measurement": "MIC", "setting": "[15]; Streptococcus faecalis strain 1", "result": 100, "unit": "µg/mL"}, {"measurement": "MIC", "setting": "[15]; Streptococcus faecalis strain 2", "result": "> 100", "unit": "µg/mL"}, {"measurement": "MIC", "setting": "[16]; Streptococcus pyogenes strain 1, read-out: Minimum inhibitory concentration", "result": 0.025, "unit": "µg/mL"}, {"measurement": "MIC", "setting": "[16]; Streptococcus pyogenes strain 2, read-out: Minimum inhibitory concentration", "result": "≤ 0.012", "unit": "µg/mL"}, {"measurement": "MIC", "setting": "[17]", "result": 0.025, "unit": "µg/mL"}, {"measurement": "MIC", "setting": "[18]", "result": 0.8, "unit": "µg/mL"}, {"measurement": "ED50", "setting": "[19]", "result": 8.4, "unit": "mg/kg"}, {"measurement": "ED50", "setting": "[20]", "result": 0.006, "unit": "mg/kg"}, {"measurement": "ED50", "setting": "[21]", "result": 1.5, "unit": "mg/kg"}, {"measurement": "ED50", "setting": "[22]", "result": 0.13, "unit": "mg/kg"}, {"measurement": "ED50", "setting": "[23]", "result": 0.05, "unit": "mg/kg"}, {"measurement": "ED50", "setting": "[24]", "result": 39, "unit": "mg/kg"}, {"measurement": "LD50", "setting": "[25]; po", "result": "> 5000", "unit": "mg/kg"}, {"measurement": "LD50", "setting": "[25]; sc", "result": "> 4000", "unit": "mg/kg"}]}]}
